One data set relates to cynomolgus monkeys. Nature of the data set: Intraocular pressure in cynomolgus monkeys. In kind it is in vivo. The note with it: monkey, 0.03% topical, single dose, 2-24 h. The procedure:
(§1) Intraocular pressure studies in dogs involved pneumatonometry performed in conscious, Beagle dogs of both sexes (10–15 kg). The animals remained conscious throughout the study and were gently restrained by hand. Drugs were administered topically to one eye as a 25 μL volume drop, the other eye received 25 μL vehicle (0.1% polysorbate 80:10 mM TRIS) as a control. Proparacaine (0.1%) was used for corneal anesthesia during tonometry.
An analogous procedure was carried out with cynomolgus monkeys with measurements at 2, 4, 6, and 24 hours after a single dose.

Data set [1] concerns Beagle dogs. Nature of the data set: Intraocular pressure in dogs (pneumatonometry). As to conditions: dog, 0.03% topical 25 μL drop to one eye, 5 day study. It counts as in vivo. As to the method:
as §1
Intraocular pressure was determined just before drug administration and at 2, 4 and 6 hr thereafter on each day of the 5 day study. Drug was administered immediately after the first IOP reading.

For data set [2], the system named is Beagle dogs. The data set can be described thus: Ocular surface hyperemia in dogs. In kind it is in vivo. As to conditions: dog, 0.03% topical; score 0.5 trace, 1 mild, 2 moderate, 3 severe. The procedure:
Ocular surface hyperemia was visually assessed and scored according to a system typically used clinically.
Ocular surface hyperemia was evaluated at the same time points as intraocular pressure measurement. It should be noted that untreated dog eyes frequently have a pink/red tone. Thus, values of trace or even mild are not necessarily out of the normal range.

The target of the next data set is T1, HEP3D (Homo sapiens, UniProt P43115).
T1 sequence (P43115 1-374 isoform P43115-4): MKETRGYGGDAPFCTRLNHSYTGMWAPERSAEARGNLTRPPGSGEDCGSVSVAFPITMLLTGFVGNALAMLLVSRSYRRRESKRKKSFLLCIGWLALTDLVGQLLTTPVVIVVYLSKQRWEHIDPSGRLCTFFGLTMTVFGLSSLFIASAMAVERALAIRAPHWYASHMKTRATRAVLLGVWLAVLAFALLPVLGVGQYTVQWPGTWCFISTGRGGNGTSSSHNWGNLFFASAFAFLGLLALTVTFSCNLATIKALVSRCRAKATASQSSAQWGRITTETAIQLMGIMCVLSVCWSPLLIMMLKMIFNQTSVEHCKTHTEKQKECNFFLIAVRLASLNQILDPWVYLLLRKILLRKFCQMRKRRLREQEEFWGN
The data set can be described thus: Radioligand binding, EP3 receptor. As to conditions: competition vs [3H]PGE2 5 nM. As to the method:
(§2) HEK-293 cells stably expressing the human or feline FP receptor, or EP1, EP2, or EP4 receptors were washed with TME buffer, scraped from the bottom of the flasks, and homogenized for 30 sec using a Brinkman PT 10/35 polytron. TME buffer was added to achieve a final 40 ml volume in the centrifuge tubes (the composition of TME is 100 mM TRIS base, 20 mM MgCl2, […]; 10N HCl is added to achieve a pH of 7.4).
(§3) The cell homogenate was centrifuged at 19000 r.p.m. for 20 min at 4° C. using a Beckman Ti-60 rotor. The resultant pellet was resuspended in TME buffer to give a final 1 mg/ml protein concentration, as determined by Biorad assay. Radioligand binding competition assays vs. [^3H-]17-phenyl PGF2α (5 nM) were performed in a 100 μl volume for 60 min. Binding reactions were started by adding plasma membrane fraction. The reaction was terminated by the addition of 4 ml ice-cold TRIS-HCl buffer and rapid filtration through glass fiber GF/B filters using a Brandel cell harvester. The filters were washed 3 times with ice-cold buffer and oven dried for one hour. Non-specific binding was determined with 10 uM unlabeled 17-phenyl PGF2α.
(§4) [^3H-] PGE2 (5 nM; specific activity 180 Ci mmol) was used as the radioligand for EP receptors. […] Non-specific binding determined with 10^−5M of unlabeled PGE2.

Another data set has as its target T2, hEP4/Gqs5 (Homo sapiens, UniProt P35408).
T2 construct: expressed in transfected cells
Nature of the data set: FLIPR calcium signal, hEP4/Gqs5. In kind it is cell-based. The note with it: HEK-293(EBNA) cells, read-out: Functional EC50 (nM) HEP4. The procedure: HEK-293(EBNA) cells, stably expressing one type or subtype of recombinant human prostaglandin receptors (prostaglandin receptors expressed: hDP/Gqs5; hEP1; hEP2/Gqs5; hEP3A/Gqi5; hEP4/Gqs5; hFP; hIP; hTP), were cultured in 100 mm culture dishes in high-glucose DMEM medium containing 10% fetal bovine serum, 2 mM 1-glutamine, 250 μg/ml geneticin (G418) and 200 μg/ml hygromycin B as selection markers, and 100 units/ml penicillin G, 100 μg/ml streptomycin and 0.25 μg/ml amphotericin B.
Cells were seeded at a density of 5×10^4 cells per well in Biocoat® Poly-D-lysine-coated black-wall, clear-bottom 96-well plates (Becton-Dickinson) and allowed to attach overnight in an incubator at 37° C. Cells were then washed two times with HBSS-HEPES buffer (Hanks Balanced Salt Solution without bicarbonate and phenol red, 20 mM HEPES, pH 7.4) using a Denley Cellwash plate washer (Labsystems). After 45 minutes of dye-loading in the dark, using the calcium-sensitive dye Fluo-4 AM at a final concentration of 2 μM, plates were washed four times with HBSS-HEPES buffer to remove excess dye leaving 100 μl in each well. Plates were re-equilibrated to 37° C. for a few minutes.
Cells were excited with an Argon laser at 488 nm, and emission was measured through a 510–570 nm bandwidth emission filter (FLIPR™, Molecular Devices, Sunnyvale, Calif.). Drug solution was added in a 50 μl volume to each well to give the desired final concentration. The peak increase in fluorescence intensity was recorded for each well. On each plate, four wells each served as negative (HBSS-HEPES buffer) and positive controls (standard agonists: BW245C (hDP); PGE2 (hEP1; hEP2/Gqs5; hEP3A/Gqi5; hEP4/Gqs5); PGF2α (hFP); carbacyclin (hIP); U-46619 (hTP), depending on receptor). The peak fluorescence change in each drug-containing well was then expressed relative to the controls.
Compounds were tested in a high-throughput (HTS) or concentration-response (CoRe) format. In the HTS format, forty-four compounds per plate were examined in duplicates at a concentration of 10^−5 M. To generate concentration-response curves, four compounds per plate were tested in duplicates in a concentration range between 10^−5 and 10^−11 M. The duplicate values were averaged. In either, HTS or CoRe format each compound was tested on at least 3 separate plates using cells from different passages to give an n≧3.

In another data set the target is T3, HEP2 (Homo sapiens, UniProt P43116).
T3 construct: expressed in transfected cells; membrane fraction
Nature of the data set: Radioligand binding, EP2 receptor. The note with it: competition vs [3H]PGE2 5 nM, HEK-293 cell membranes. The procedure:
as §2, §3, §4

In a further data set the target is T4, HEP4 (Homo sapiens, UniProt P35408).
T4 construct: expressed in transfected cells; membrane fraction
Nature of the data set: Radioligand binding, EP4 receptor. The note with it: competition vs [3H]PGE2 5 nM, HEK-293 cell membranes. The procedure: as §2, §3
[^3H-] PGE2 (5 nM; specific activity 180 Ci mmol) was used as the radioligand for EP receptors. Binding studies employing EP1, EP2, EP3, EP4 were performed in duplicate in at least three separate experiments. A 200 μl assay volume was used. Incubations were for 60 min at 25° C. and were terminated by the addition of 4 ml of ice-cold 50 mM TRIS-HCl, followed by rapid filtration through Whatman GF/B filters and three additional 4 ml washes in a cell harvester (Brandel). Non-specific binding determined with 10^−5M of unlabeled PGE2.

T3 sequence (P43116 whole entry): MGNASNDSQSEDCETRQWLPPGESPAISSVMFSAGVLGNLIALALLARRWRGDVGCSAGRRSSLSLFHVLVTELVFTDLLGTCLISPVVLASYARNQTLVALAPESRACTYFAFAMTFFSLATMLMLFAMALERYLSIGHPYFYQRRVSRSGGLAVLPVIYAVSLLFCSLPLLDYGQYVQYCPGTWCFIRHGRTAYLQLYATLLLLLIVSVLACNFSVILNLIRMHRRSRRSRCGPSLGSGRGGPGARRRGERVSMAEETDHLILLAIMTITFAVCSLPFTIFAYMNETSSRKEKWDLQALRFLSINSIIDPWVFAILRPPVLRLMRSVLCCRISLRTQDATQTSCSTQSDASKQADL
T4 sequence (P35408 whole entry): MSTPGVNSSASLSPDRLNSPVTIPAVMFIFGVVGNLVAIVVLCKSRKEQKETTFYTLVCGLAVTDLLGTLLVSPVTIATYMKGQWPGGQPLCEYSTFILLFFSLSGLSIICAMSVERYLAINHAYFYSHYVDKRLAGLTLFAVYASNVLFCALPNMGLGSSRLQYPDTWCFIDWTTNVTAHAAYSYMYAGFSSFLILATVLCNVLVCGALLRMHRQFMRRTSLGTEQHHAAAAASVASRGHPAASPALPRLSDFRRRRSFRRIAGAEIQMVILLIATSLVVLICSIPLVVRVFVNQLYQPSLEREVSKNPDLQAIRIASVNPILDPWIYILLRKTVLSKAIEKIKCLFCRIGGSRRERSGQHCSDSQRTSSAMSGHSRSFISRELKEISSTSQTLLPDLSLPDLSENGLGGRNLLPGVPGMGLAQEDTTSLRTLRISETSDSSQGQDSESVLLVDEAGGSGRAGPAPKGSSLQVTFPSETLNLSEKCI
T2 sequence (P35408 whole entry): as above

For the molecule `CC(C)OC(=O)CCC/C=C\C[C@H]1C(=O)CC[C@@H]1/C=C/C(O)CCc1sc2ccccc2c1Cl` (single isomer, unassigned) [Compound 16b], the “Max. ΔIOP (mm Hg)” value is −3.4 mm Hg in the data set with cynomolgus monkeys and −5.7 mm Hg in the data set with Beagle dogs [1]. Besides, the Max hyperemia in the data set on Beagle dogs [2] was determined as 0.9.
With `CC(C)OC(=O)CCC/C=C\C[C@H]1C(=O)CC[C@@H]1/C=C/C(O)CCc1sc2ccccc2c1Cl` (single isomer, unassigned) [Compound 16c], the figures for the “Max. ΔIOP (mm Hg)” value in the data set with cynomolgus monkeys and with Beagle dogs [1] were −7.8 mm Hg and −4.8 mm Hg, respectively. The Max hyperemia with Beagle dogs [2] amounted to 1.0.
For the molecule `O=C(O)CCC/C=C\C[C@H]1C(=O)CC[C@@H]1/C=C/C(O)CCc1sc2ccccc2c1Cl` (stereo partly shown) [drawing 40], the IC50 was 6000 nM on HEP3D, > 10000 nM on HEP2 and 150 nM at HEP4. Further, at hEP4/Gqs5, the concentration giving a half-maximal response (EC50) worked out at 11 nM.

The values above are taken from US7101906B2, “2,3,4-substituted cyclopentanones as therapeutic agents” (Allergan, Inc., priority 2004, dated 2006).
